ChEMBL document CHEMBL1201862, “PubChem BioAssay data set” (2004)
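Protocol summary: plate cells (96-well), add compound at 5 concentrations, incubate 48 h, interpolate endpoints linearly. GI50 = concentration required for 50% inhibition of growth.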 Activity calls are given as the source filed them. No stated cut-off is given here; in the data, active = GI50 up to about 1.1 µM and inactive = higher.

Assays:
Test in all cases: NCI tumour cell line growth inhibition, 48 h
[1] = test system: SK-MEL-2
[2] = test system: PC-3
[3] = test system: SW-620
[4] = test system: U-251
[5] = test system: OVCAR-4
[6] = test system: BT-549
[7] = test system: OVCAR-8
[8] = test system: OVCAR-3
[9] = test system: A498
[10] = test system: SK-MEL-5
[11] = test system: SN12C
[12] = test system: HOP-92
[13] = test system: COLO 205
[14] = test system: NCI/ADR-RES
[15] = test system: ACHN
[16] = test system: SF-295
[17] = test system: HCT-116
[18] = test system: 786-0
[19] = test system: MDA-MB-231

Row | Compound | GI50 [1] | GI50 [2] | GI50 [3] | GI50 [4] | GI50 [5] | GI50 [6] | GI50 [7] | GI50 [8] | GI50 [9] | GI50 [10] | GI50 [11] | GI50 [12] | GI50 [13] | GI50 [14] | GI50 [15] | GI50 [16] | GI50 [17] | GI50 [18] | GI50 [19]
1 | Cc1ccc2c(c1C)-c1c(ccc(C)c1C)C(=O)C2=O | 1.19 µM (inactive) | 0.265 µM (active) | 0.378 µM (active) | 0.432 µM (active) | 0.0459 µM (active) | 0.335 µM (active) | 0.253 µM (active) | 0.296 µM (active) | 1.87 µM (inactive) | 0.367 µM (active) | 0.817 µM (active) | 0.374 µM (active) | 2.02 µM (inactive) | 0.151 µM (active) | 0.625 µM (active) | 0.59 µM (active) | 0.361 µM (active) | 0.358 µM (active) | 1.62 µM (inactive)
2 | O=c1oc2ccccc2c(Nc2ccc3c(c2)Oc2ccccc2O3)c1[N+](=O)[O-] | 16.9 µM (inactive) | 17.7 µM (inactive) | 22.7 µM (inactive) | 16 µM (inactive) | 23.9 µM (inactive) | 25.6 µM (inactive) | 18.8 µM (inactive) | 24.6 µM (inactive) | 27 µM (inactive) | 20.4 µM (inactive) | 35.8 µM (inactive) | 16.7 µM (inactive) | > 100 µM (inactive) | 27.9 µM (inactive) | 16.3 µM (inactive) | 18 µM (inactive) | 31.8 µM (inactive) | 18.9 µM (inactive) | 17.1 µM (inactive)
3 | Cc1c(C)c2c(c(N)c1C#N)C(=O)N(NC(=O)c1ccccc1)C2=O | > 100 µM (inactive) | > 100 µM (inactive) | > 100 µM (inactive) | > 100 µM (inactive) | > 100 µM (inactive) | > 100 µM (inactive) | > 100 µM (inactive) | > 100 µM (inactive) | > 100 µM (inactive) | > 100 µM (inactive) | > 100 µM (inactive) | > 100 µM (inactive) | > 100 µM (inactive) | > 100 µM (inactive) | > 100 µM (inactive) | > 100 µM (inactive) | > 100 µM (inactive) | > 100 µM (inactive) | > 100 µM (inactive)
4 | Cc1coc2c1CC1(C)C(CCC(O)C1C)C2 (stereo unspecified) | > 100 µM (inactive) | > 100 µM (inactive) | > 100 µM (inactive) | > 100 µM (inactive) | > 100 µM (inactive) | > 100 µM (inactive) | > 100 µM (inactive) | > 100 µM (inactive) | > 100 µM (inactive) | > 100 µM (inactive) | > 100 µM (inactive) | > 100 µM (inactive) | > 100 µM (inactive) | > 100 µM (inactive) | > 100 µM (inactive) | > 100 µM (inactive) | > 100 µM (inactive) | > 100 µM (inactive) | > 100 µM (inactive)
5 | CC(C)C1OC(=O)C(Cc2ccccc2)N(C)C(=O)C(C(C)C)OC(=O)C(Cc2ccccc2)N(C)C(=O)C(C(C)C)OC(=O)C(Cc2ccccc2)N(C)C1=O (stereo unspecified) | 0.628 µM (active) | 0.687 µM (active) | 0.685 µM (active) | 0.661 µM (active) | 0.463 µM (active) | 1.39 µM (inactive) | 0.723 µM (active) | 0.598 µM (active) | 2.36 µM (inactive) | 0.53 µM (active) | 0.804 µM (active) | 0.528 µM (active) | 0.682 µM (active) | 0.771 µM (active) | 0.603 µM (active) | 0.662 µM (active) | 0.989 µM (active) | 1.17 µM (inactive) | 1.37 µM (inactive)
6 | CC(=O)Oc1ccc2c(c1)Oc1cc(C(C)=O)ccc1C21OC(=O)c2ccccc21 (stereo unspecified) | > 100 µM (inactive) | > 100 µM (inactive) | > 100 µM (inactive) | > 100 µM (inactive) | > 100 µM (inactive) | > 100 µM (inactive) | > 100 µM (inactive) | 60.3 µM (inactive) | > 100 µM (inactive) | > 100 µM (inactive) | > 100 µM (inactive) | > 100 µM (inactive) | > 100 µM (inactive) | > 100 µM (inactive) | > 100 µM (inactive) | > 100 µM (inactive) | > 100 µM (inactive) | > 100 µM (inactive) | > 100 µM (inactive)
7 | Cc1nc2ccc(S(=O)(=O)O)cc2c(=O)n1-c1ccc(C(=O)NN2C(=O)C(Cl)C2c2cccs2)cc1 (stereo unspecified) | 23.3 µM (inactive) | > 100 µM (inactive) | > 100 µM (inactive) | > 100 µM (inactive) | 24.5 µM (inactive) | > 100 µM (inactive) | > 100 µM (inactive) | > 100 µM (inactive) | > 100 µM (inactive) | > 100 µM (inactive) | > 100 µM (inactive) | > 100 µM (inactive) | > 100 µM (inactive) | > 100 µM (inactive) | > 100 µM (inactive) | > 100 µM (inactive) | > 100 µM (inactive) | > 100 µM (inactive) | 22.9 µM (inactive)
8 | C/C=C(\C)C(=O)OC1CC(OC(C)=O)C2(C(=O)OC)COC3C2C1(C)C1C2(C(=O)OC)OCC1(C3O)C1(O)C3CC(C4(O)C=COC4O3)C1(C)O2 (stereo unspecified) | > 100 µM (inactive) | > 100 µM (inactive) | > 100 µM (inactive) | > 100 µM (inactive) | > 100 µM (inactive) | > 100 µM (inactive) | > 100 µM (inactive) | > 100 µM (inactive) | > 100 µM (inactive) | > 100 µM (inactive) | > 100 µM (inactive) | > 100 µM (inactive) | > 100 µM (inactive) | > 100 µM (inactive) | > 100 µM (inactive) | > 100 µM (inactive) | > 100 µM (inactive) | > 100 µM (inactive) | > 100 µM (inactive)
9 | C=C1C(=O)O[C@H]2[C@H]([C@H](C)CCCC(C)=O)O[C@H]([C@@]3(C)CCC(=O)O3)C[C@@H]12 | > 100 µM (inactive) | > 100 µM (inactive) | 46.3 µM (inactive) | > 100 µM (inactive) | > 100 µM (inactive) | 31.8 µM (inactive) | 63.4 µM (inactive) | 56.1 µM (inactive) | > 100 µM (inactive) | > 100 µM (inactive) | 92 µM (inactive) | > 100 µM (inactive) | 40.6 µM (inactive) | > 100 µM (inactive) | 46.9 µM (inactive) | > 100 µM (inactive) | 22.3 µM (inactive) | 35.2 µM (inactive) | > 100 µM (inactive)
10 | O=[N+]([O-])c1ccc(-c2csc3nc(-c4ccccc4)nn23)cc1 | > 100 µM (inactive) | > 100 µM (inactive) | > 100 µM (inactive) | 39.8 µM (inactive) | > 100 µM (inactive) | > 100 µM (inactive) | 47.5 µM (inactive) | > 100 µM (inactive) | > 100 µM (inactive) | > 100 µM (inactive) | > 100 µM (inactive) | 50.5 µM (inactive) | > 100 µM (inactive) | > 100 µM (inactive) | > 100 µM (inactive) | 28.3 µM (inactive) | > 100 µM (inactive) | 98.2 µM (inactive) | 44 µM (inactive)
11 | O=[N+]([O-])C(=C(N1CCCCC1)N1CCCCC1)/C(Cl)=C(\Cl)[N+](=O)[O-] | 16.9 µM (inactive) | 14.3 µM (inactive) | 3.36 µM (inactive) | 18.7 µM (inactive) | 8.2 µM (inactive) | 6.95 µM (inactive) | 10.9 µM (inactive) | 3.79 µM (inactive) | 17.9 µM (inactive) | 5.69 µM (inactive) | 1.67 µM (inactive) | 2.74 µM (inactive) | 5.01 µM (inactive) | 22.7 µM (inactive) | 3.27 µM (inactive) | 21.5 µM (inactive) | 2.61 µM (inactive) | 3.42 µM (inactive) | 7.59 µM (inactive)
12 | N#Cc1c(N2CCCC2)ncn(Cc2ccccc2)c1=S | > 100 µM (inactive) | 71.3 µM (inactive) | > 100 µM (inactive) | 38.9 µM (inactive) | 44.2 µM (inactive) | > 100 µM (inactive) | 57.1 µM (inactive) | 60.5 µM (inactive) | 40.6 µM (inactive) | > 100 µM (inactive) | > 100 µM (inactive) | 22.4 µM (inactive) | > 100 µM (inactive) | 65 µM (inactive) | > 92.7 µM (inactive) | 94.6 µM (inactive) | > 100 µM (inactive) | 36.2 µM (inactive) | > 88.3 µM (inactive)
13 | O=C1C(c2c(O)[nH]c3ccc(Cl)cc23)=Nc2ccccc21 | 5.55 µM (inactive) | 3.28 µM (inactive) | 25.4 µM (inactive) | 4.98 µM (inactive) | 2.2 µM (inactive) | 66.4 µM (inactive) | 4.09 µM (inactive) | 3.66 µM (inactive) | 5.01 µM (inactive) | 3.18 µM (inactive) | 17 µM (inactive) | 8.02 µM (inactive) | 20 µM (inactive) | 7.91 µM (inactive) | 3.86 µM (inactive) | 10.4 µM (inactive) | 1.98 µM (inactive) | 1.99 µM (inactive) | 2.51 µM (inactive)
14 | c1ccc2c(c1)nc1n2CCNC1 | > 100 µM (inactive) | > 100 µM (inactive) | > 100 µM (inactive) | > 100 µM (inactive) | > 100 µM (inactive) | > 100 µM (inactive) | > 100 µM (inactive) | 63 µM (inactive) | > 100 µM (inactive) | > 100 µM (inactive) | > 100 µM (inactive) | > 100 µM (inactive) | > 100 µM (inactive) | > 100 µM (inactive) | > 100 µM (inactive) | > 100 µM (inactive) | > 100 µM (inactive) | > 100 µM (inactive) | > 100 µM (inactive)
